Earlier results as cited in patent publication US12403100B2, “Natural combination products and methods for regulation of total blood cholesterol” (priority 2018, dated 2025).

Tests used:
[1] = in vivo
CYP 2C9 = CYP 2C9 (Homo sapiens, UniProt P11712)
[2] = in vivo; remark: listed apart in the source
[3] = Reynoso et al. 2002
[4] = aqueous-acidic medium
[5] = not given; remark: listed apart in the source
[6] = not given; remark: listed apart in the source
[7] = tested on: hyperlipidemic patients with hypertension; conditions: intake of 20 mg of lovastatin, same time (8 weeks)
CYP 3A4 = CYP 3A4 (Homo sapiens, UniProt P08684)
CYP 3A4, sequence (P08684 whole entry): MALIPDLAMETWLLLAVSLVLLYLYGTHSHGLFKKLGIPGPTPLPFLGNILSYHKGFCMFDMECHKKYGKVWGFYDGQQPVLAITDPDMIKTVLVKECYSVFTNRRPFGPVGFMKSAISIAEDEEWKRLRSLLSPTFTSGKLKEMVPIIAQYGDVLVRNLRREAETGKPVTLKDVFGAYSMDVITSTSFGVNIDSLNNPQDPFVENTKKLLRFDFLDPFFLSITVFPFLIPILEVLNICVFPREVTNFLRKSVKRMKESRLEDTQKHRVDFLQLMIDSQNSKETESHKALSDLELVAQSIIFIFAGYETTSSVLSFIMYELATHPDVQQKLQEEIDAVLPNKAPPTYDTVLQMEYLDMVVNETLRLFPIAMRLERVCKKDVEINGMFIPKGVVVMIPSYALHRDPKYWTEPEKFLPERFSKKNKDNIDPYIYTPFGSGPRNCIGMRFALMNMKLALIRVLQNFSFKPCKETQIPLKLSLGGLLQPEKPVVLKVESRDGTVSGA

lipoprotein mycelia = conditions: concentration of 0.2 mg/mL
[8] = target: T1, pancreatic cholesterol esterase (Sus scrofa, UniProt A0A286ZKB1); conditions: depending on their concentration
T1 sequence (A0A286ZKB1 1-682): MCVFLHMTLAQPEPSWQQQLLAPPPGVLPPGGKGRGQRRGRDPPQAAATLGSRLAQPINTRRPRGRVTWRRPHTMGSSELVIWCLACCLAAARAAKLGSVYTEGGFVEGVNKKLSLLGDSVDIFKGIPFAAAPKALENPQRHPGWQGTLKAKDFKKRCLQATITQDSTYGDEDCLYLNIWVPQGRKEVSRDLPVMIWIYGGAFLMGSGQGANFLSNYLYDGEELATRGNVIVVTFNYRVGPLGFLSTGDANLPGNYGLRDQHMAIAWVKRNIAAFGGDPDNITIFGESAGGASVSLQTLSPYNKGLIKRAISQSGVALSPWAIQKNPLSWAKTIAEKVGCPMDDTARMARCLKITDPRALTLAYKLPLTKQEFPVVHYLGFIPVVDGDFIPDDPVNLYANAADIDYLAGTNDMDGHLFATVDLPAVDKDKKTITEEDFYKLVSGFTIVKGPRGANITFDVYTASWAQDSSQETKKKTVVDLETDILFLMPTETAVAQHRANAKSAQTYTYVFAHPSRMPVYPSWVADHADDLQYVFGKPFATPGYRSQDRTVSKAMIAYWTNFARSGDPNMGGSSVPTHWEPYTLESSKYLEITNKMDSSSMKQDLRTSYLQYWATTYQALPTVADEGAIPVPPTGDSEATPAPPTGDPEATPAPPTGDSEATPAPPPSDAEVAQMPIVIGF

CYP 2C9, sequence (P11712 whole entry): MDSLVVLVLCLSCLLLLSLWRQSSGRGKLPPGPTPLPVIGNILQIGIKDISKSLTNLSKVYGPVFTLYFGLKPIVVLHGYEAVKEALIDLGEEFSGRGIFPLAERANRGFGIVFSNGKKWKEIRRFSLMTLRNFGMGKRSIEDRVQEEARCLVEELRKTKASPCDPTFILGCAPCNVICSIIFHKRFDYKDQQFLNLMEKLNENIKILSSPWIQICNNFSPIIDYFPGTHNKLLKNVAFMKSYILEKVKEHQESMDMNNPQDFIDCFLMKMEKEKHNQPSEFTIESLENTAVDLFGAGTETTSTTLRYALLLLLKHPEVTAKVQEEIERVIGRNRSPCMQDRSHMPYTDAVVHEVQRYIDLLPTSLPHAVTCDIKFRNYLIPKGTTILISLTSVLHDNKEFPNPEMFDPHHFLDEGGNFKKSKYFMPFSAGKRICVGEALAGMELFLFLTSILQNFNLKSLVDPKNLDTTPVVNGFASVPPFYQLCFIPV

CC(C)n1c(/C=C/C(O)CC(O)CC(=O)O)c(-c2ccc(F)cc2)c2ccccc21 (centres unmarked) [Fluvastatin]
Plasma half-life [1]: 1.2 h | metabolized by CYP 2C9 (CYP 2C9): metabolized | lipophilic or hydrophilic: lipophilic | Passing through the blood-brain barrier [2]: No | Metabolism by CYP450 (CYP450): Yes

CC[C@H](C)C(=O)O[C@H]1C[C@@H](C)C=C2C=C[C@H](C)[C@H](CC[C@@H]3C[C@@H](O)CC(=O)O3)[C@H]21 [Lovastatin]
Absorption (%) [1]: 31% | Plasma half-life [1]: 2 to 4 h | Renal excretion (%) [1]: 30% | absorbed from the digestive tract [3]: ~30% | energy released by the reverse process (hydrolysis) [4]: 2.42 kcal/mol | lipophilic or hydrophilic: lipophilic | Binding to Plasma proteins (%) (plasma proteins): 95% | bound to plasma proteins (plasma proteins; lovastatin and its metabolites): > 95% | remaining share of the maximal concentration ([5]; after about 24 hours): 10% | absorbed in the gastrointestinal tract ([5]; from the taken dose): about 30% | passage through the placental barrier ([5]; in vivo): passes through the placental barrier | share converted to beta hydroxyl acid ([5]; in vivo): about 30% | time to maximal hypolipidemic effect ([5]; in vivo): 4-6 weeks | time to overt hypolipidemic effect ([5]; in vivo): 2 weeks | time until maximal concentration is reached ([5]; in vivo): about 2 hours | eliminated in excrement ([5]; taken orally): 83% | eliminated in the urine ([5]; taken orally): 10% | solubility in fat [6]: dissolves more easily in fat | solubility in water [6]: difficult to dissolve in water | reduction in cholesterol [7]: 19%

CCC(C)(C)C(=O)O[C@H]1C[C@@H](C)C=C2C=C[C@H](C)[C@H](CC[C@@H]3C[C@@H](O)CC(=O)O3)[C@H]21 [Simvastatin]
Plasma half-life [1]: 1.3 to 2.4 h

CC[C@H](C)C(=O)O[C@H]1C[C@@H](C)C=C2C=C[C@H](C)[C@H](CC[C@@H](O)C[C@@H](O)CC(=O)O)[C@H]21 [Mevinolinic acid]
energy required for lactonization of mevinolinic acid in lovastatin [4]: 4.93 kcal/mol | solubility in fat [6]: with more difficultly in fat | solubility in water [6]: dissolves easily in water

CC[C@H](C)C(=O)O[C@H]1C[C@H](O)C=C2C=C[C@H](C)[C@H](CC[C@@H](O)C[C@@H](O)CC(=O)O)[C@H]21 [Pravastatin]
Absorption (%) [1]: 35% | Plasma half-life [1]: 0.9 to 1.6 h | Renal excretion (%) [1]: 60% | metabolized by CYP 3A4 (CYP 3A4): not metabolized | lipophilic or hydrophilic: hydrophilic | Binding to Plasma proteins (%) (plasma proteins): 40-50% | Passing through the blood-brain barrier [2]: No | Metabolism by CYP450 (CYP450): No

O=C(O)c1cc(O)c(O)c(O)c1 [gallic acid]
reduction of the formation of lipoprotein mycelia (lipoprotein mycelia): 27.26±2.17% | inhibition of pancreatic cholesterol ester [8]: significantly inhibit

CC(C)c1nc(N(C)S(C)(=O)=O)nc(-c2ccc(F)cc2)c1/C=C/[C@@H](O)C[C@@H](O)CC(=O)O [rosuvastatin]
metabolized by CYP 2C9 (CYP 2C9): metabolized | metabolized by CYP 3A4 (CYP 3A4): not metabolized | lipophilic or hydrophilic: hydrophilic

catechin
reduction of the formation of lipoprotein mycelia (lipoprotein mycelia): 11.88±0.75% | inhibition of pancreatic cholesterol ester [8]: significantly inhibit
